“Also recorded” adds a separate entry of the source. Positions of bridges follow the written chain, without caps; N, C: chain ends. Residues, ends and D or L forms follow the SMILES beside them.
Legend:
[1] = tested on: surgery-induced mechanical allodynia; design: species or system mice (C57BL/6J); conditions: mouse, in vivo
naïve C57BL6/J mice [2] = conditions: mouse, in vivo
[3] = in vivo; cited from earlier work
mouse inflammatory pain = conditions: in vivo, sc; cited from earlier work
[4] = tested on: oxaliplatin-induced mechanical allodynia; design: species or system mice (C57BL/6J); conditions: mouse, in vivo
[5] = tested on: cisplatin-induced mechanical allodynia; design: species or system mice (C57BL/6J); conditions: mouse, in vivo
naïve C57BL6/J mice [6] = conditions: mouse, in vivo; remark: listed apart in the source
[7] = tested on: oxaliplatin-induced mechanical allodynia; design: species or system mice (C57BL/6J); conditions: mouse, in vivo; remark: listed apart in the source
naïve C57BL6/J mice [8] = conditions: mouse, in vivo; remark: listed apart in the source
CaV channel = conditions: cited from earlier work
[9] = tested on: surgery-induced thermal allodynia; design: species or system mice (C57BL/6J); conditions: mouse, in vivo
[10] = molecular target: T1, endogenous CaV2.2 channels, expressed in the SH-SY5Y cells (Homo sapiens, UniProt Q00975); test: cell-based
T1 construct: endogenous CaV2.2 channels, expressed in the SH-SY5Y cells; endogenous in cells; host or cells: SH-SY5Y human neuroblastoma cells

[11] = in vivo, cited from earlier work

T1 sequence (Q00975 whole entry, looked up): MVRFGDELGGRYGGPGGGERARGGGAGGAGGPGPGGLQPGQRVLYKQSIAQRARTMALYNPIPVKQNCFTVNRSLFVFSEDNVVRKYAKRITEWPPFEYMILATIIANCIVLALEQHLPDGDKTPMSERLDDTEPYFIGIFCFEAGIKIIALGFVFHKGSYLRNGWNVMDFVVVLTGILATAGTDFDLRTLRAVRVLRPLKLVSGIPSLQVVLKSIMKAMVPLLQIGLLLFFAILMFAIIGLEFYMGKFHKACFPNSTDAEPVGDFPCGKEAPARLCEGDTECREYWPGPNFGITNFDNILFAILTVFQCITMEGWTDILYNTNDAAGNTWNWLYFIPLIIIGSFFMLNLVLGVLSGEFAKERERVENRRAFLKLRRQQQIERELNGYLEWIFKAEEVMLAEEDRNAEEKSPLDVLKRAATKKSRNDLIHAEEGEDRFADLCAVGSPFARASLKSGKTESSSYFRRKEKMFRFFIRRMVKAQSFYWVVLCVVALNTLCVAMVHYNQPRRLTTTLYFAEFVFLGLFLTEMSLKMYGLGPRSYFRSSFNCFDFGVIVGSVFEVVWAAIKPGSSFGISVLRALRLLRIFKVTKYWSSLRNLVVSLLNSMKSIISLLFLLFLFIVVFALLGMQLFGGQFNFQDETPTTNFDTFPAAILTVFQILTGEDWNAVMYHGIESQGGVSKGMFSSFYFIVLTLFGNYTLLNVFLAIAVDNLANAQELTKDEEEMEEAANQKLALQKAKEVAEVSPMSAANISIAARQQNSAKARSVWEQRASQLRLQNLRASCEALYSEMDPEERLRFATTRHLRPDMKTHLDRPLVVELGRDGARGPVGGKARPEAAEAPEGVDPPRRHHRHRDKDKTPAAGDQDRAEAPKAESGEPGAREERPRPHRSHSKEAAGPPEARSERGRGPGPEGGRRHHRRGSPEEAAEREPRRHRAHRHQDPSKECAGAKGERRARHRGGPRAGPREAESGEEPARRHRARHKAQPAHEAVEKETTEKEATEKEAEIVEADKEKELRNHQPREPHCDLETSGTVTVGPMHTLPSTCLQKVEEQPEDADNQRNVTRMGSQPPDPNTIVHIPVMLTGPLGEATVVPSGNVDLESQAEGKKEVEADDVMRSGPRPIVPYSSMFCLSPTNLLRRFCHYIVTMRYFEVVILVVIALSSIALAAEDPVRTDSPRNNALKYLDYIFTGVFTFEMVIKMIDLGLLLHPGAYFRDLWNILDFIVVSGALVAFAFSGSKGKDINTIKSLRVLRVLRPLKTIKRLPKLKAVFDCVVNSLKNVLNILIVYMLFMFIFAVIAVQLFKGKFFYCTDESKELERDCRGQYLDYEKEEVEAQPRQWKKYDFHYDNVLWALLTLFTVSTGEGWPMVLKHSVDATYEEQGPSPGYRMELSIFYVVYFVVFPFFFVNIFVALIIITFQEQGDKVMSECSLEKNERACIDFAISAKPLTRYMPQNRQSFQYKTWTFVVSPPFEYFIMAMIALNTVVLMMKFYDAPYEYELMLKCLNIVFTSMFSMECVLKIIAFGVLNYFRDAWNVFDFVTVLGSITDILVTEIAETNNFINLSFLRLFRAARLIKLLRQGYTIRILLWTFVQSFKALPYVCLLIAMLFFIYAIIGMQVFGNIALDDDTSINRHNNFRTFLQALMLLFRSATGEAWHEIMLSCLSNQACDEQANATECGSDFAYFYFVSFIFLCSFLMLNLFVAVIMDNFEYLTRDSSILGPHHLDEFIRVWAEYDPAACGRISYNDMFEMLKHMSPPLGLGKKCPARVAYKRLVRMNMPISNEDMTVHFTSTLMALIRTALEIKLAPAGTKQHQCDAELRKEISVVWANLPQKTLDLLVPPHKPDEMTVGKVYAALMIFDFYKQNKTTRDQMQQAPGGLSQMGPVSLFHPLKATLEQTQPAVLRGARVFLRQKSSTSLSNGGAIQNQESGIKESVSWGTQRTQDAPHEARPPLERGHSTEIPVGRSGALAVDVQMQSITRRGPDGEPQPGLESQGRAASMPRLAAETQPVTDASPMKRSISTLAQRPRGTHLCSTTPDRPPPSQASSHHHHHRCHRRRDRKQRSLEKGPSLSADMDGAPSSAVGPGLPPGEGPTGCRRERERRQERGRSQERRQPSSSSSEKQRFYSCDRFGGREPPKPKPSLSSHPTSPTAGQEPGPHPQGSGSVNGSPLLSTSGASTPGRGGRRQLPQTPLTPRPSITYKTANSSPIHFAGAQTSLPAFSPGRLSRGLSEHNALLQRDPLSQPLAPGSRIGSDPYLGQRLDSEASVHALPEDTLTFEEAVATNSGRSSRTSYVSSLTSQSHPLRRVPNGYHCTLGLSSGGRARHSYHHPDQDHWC

SMILES: CC(C)C[C@@H]1NC(=O)[C@H](CCCNC(=N)N)NC(=O)[C@@H]2CSSC[C@@H]3NC(=O)[C@H](CO)NC(=O)[C@H](C)NC(=O)CNC(=O)[C@H](CCCCN)NC(=O)CNC(=O)[C@H](CCCCN)NC(=O)[C@@H](N)CSSC[C@H](NC(=O)[C@H](CSSC[C@@H](C(N)=O)NC(=O)[C@H](CCCNC(=N)N)NC(=O)CNC1=O)NC(=O)[C@H](CC(=O)O)NC(=O)[C@H](Cc1ccc(O)cc1)NC(=O)[C@H](CO)NC(=O)[C@H]([C@@H](C)O)NC(=O)[C@H](CCCNC(=N)N)NC(=O)[C@H](CCCNC(=N)N)NC3=O)C(=O)N[C@@H]([C@@H](C)O)C(=O)NCC(=O)N[C@@H](CO)C(=O)N2 [CVIF] (H-CKGKGASCRRTSYDCCTGSCRLGRC-NH2; disulfide 1-16, 8-20, 15-25)
- Effect on PSP mechanical allodynia, 6.0 pmol/paw [1]: remained unchanged; also recorded: did not produce any significant antiallodynic effect
- Mechanical PWT, PSP, 6.0 pmol/paw [1]: 1.4 ± 0.1 g
- Effect on basal thermal PWT (naïve C57BL6/J mice [2]): did not significantly change mechanical and thermal PWTs
- Thermal PWT (naïve C57BL6/J mice [2]): 50.8 ± 0.8 °C
- Safety profile [3]: better safety profile in preclinical studies
- Effect on inflammatory pain (mouse inflammatory pain): partially reversed the incapacitance of mouse inflammatory pain
- Side effects after subcutaneous administration (mouse inflammatory pain): did not cause side effects
- Activity across the pain models [4]: inactive in these pain models; also recorded: not found effective in any of the peripheral pain models
- Effect on OIPN mechanical PWT, 6 pmol/paw [4]: did not significantly change PWTs; also recorded: did not elicit significant antiallodynic effect
- Mechanical PWT, OIPN, 2.0 pmol/paw [4]: 1.9 ± 0.2 g
- Mechanical PWT, OIPN, 6.0 pmol/paw [4]: 1.7 ± 0.1 g
- Effect on CisIPN mechanical PWT [5]: did not significantly change the PWTs; also recorded: did not produce any significant antiallodynic effect
- Mechanical PWT, CisIPN, 2 pmol/paw [5]: 2.0 ± 0.3 g
- Effect on basal mechanical PWT (naïve C57BL6/J mice [6]): did not significantly change mechanical and thermal PWTs
- Mechanical PWT (naïve C57BL6/J mice [6]): 3.1 ± 0.2 g
- Effect of contralateral administration on OIPN mechanical PWT [7]: did not significantly change mechanical PWTs; also recorded: did not reverse mechanical allodynia
- Mechanical PWT, OIPN, contralateral administration [7]: 1.6 ± 0.4 g
- Ataxia index (naïve C57BL6/J mice [8]): 7.3 ± 1.8
- Ataxia index (paw slips/distance covered) (naïve C57BL6/J mice [8]): 7.3 ± 1.8 m
- Distance covered (naïve C57BL6/J mice [8]): 1.7 ± 0.4 m
- Number of paw slips (naïve C57BL6/J mice [8]): 10.5 ± 1.5
- Number of paw slips (printed with unit g) (naïve C57BL6/J mice [8]): 10.5 ± 1.5 g
- State dependence of affinity (CaV channel): higher affinity for channels in the inactivated state
- Effect on PSP thermal allodynia [9]: did not reverse thermal allodynia
- Thermal PWT, PSP, 2.0 pmol/paw [9]: 48.9 ± 0.4 °C

SMILES: C[C@@H](O)[C@@H]1NC(=O)[C@H](Cc2ccc(O)cc2)NC(=O)[C@@H]2C[C@@H](O)CN2C(=O)[C@H](CC(N)=O)NC(=O)[C@@H]2CSSC[C@@H]3NC(=O)[C@H](CO)NC(=O)[C@H](CO)NC(=O)CNC(=O)[C@@H]4C[C@@H](O)CN4C(=O)[C@H](CO)NC(=O)[C@H](CCCCN)NC(=O)[C@@H](N)CSSC[C@H](NC(=O)[C@H](CSSC[C@@H](C(=O)N[C@@H](Cc4ccc(O)cc4)C(N)=O)NC(=O)[C@H](CCCN=C(N)N)NC(=O)[C@H](CCCCN)NC1=O)NC(=O)[C@H](CC(N)=O)NC(=O)[C@H](Cc1ccc(O)cc1)NC(=O)[C@H](CO)NC(=O)[C@H]([C@@H](C)O)NC(=O)[C@@H]1C[C@@H](O)CN1C(=O)[C@H](CO)NC3=O)C(=O)N[C@@H](CCCN=C(N)N)C(=O)N[C@@H](CO)C(=O)N2 [GVIA]
- Effect on basal thermal PWT (naïve C57BL6/J mice [2]): did not significantly change mechanical and thermal PWTs
- IC50 [10]: 11.2 ± 3.3 nM
- Effect on basal mechanical PWT (naïve C57BL6/J mice [6]): did not significantly change mechanical and thermal PWTs
- Ataxia index (naïve C57BL6/J mice [8]): 6.9 ± 1.7
- Ataxia index (paw slips/distance covered) (naïve C57BL6/J mice [8]): 6.9 ± 1.7 m
- Distance covered (naïve C57BL6/J mice [8]): 1.7 ± 0.2 m
- Number of paw slips (naïve C57BL6/J mice [8]): 11.3 ± 2.8

SMILES: CSCC[C@@H]1NC(=O)[C@H](CC(C)C)NC(=O)[C@H](CCCNC(=N)N)NC(=O)[C@H](CO)NC(=O)[C@@H]2CSSC[C@@H]3NC(=O)[C@H](CO)NC(=O)CNC(=O)[C@H]([C@@H](C)O)NC(=O)[C@H](CSSC[C@H](N)C(=O)N[C@@H](CCCCN)C(=O)NCC(=O)N[C@@H](CCCCN)C(=O)NCC(=O)N[C@@H](C)C(=O)N[C@@H](CCCCN)C(=O)N2)NC(=O)[C@H](CSSC[C@@H](C(N)=O)NC(=O)[C@H](CCCCN)NC(=O)CNC(=O)[C@H](CO)NC(=O)[C@H](CCCNC(=N)N)NC3=O)NC(=O)[C@H](CC(=O)O)NC(=O)[C@H](Cc2ccc(O)cc2)NC1=O [MVIIA]
- Effect on basal thermal PWT (naïve C57BL6/J mice [2]): did not significantly change mechanical and thermal PWTs
- Oral bioavailability and CNS access ([11]; po): Poor oral bioavailability and CNS access
- Plasma half-life [11]: short plasma half-life
- Effect on basal mechanical PWT (naïve C57BL6/J mice [6]): did not significantly change mechanical and thermal PWTs
- Ataxia index (naïve C57BL6/J mice [8]): 6.7 ± 1.6
- Ataxia index (paw slips/distance covered) (naïve C57BL6/J mice [8]): 6.7 ± 1.6 m
- Distance covered (naïve C57BL6/J mice [8]): 1.8 ± 0.3 m
- Number of paw slips (naïve C57BL6/J mice [8]): 11.0 ± 1.8
- Number of paw slips (printed with unit g) (naïve C57BL6/J mice [8]): 11.0 ± 1.8 g

Reference: paper PMC7917901 (Marine Drugs, 2021)
